One compound from patent publication US11963971B2, “Combination decitabine and cedazuridine solid oral dosage forms” (Otsuka Pharmaceutical Co., Ltd., priority 2020, dated 2024) can be followed below.

Data set [1] in a line: ASTX727 Phase 1 dose escalation study: plasma decitabine pharmacokinetics (AUC). The note with it: for AUC(0-t): human, plasma. It counts as in vivo, human. On the procedure: The ASTX727 Phase 1 study was a dose escalation designed to establish the recommended doses of cedazuridine and decitabine likely to achieve AUC equivalence with standard dose decitabine IV (decitabine 20 mg/m^2 IV). FIG. 1 provides an overview of the study design. In Cycle 1, each patient received a cohort-defined dose of oral decitabine on day −3, a 1-h intravenous infusion of decitabine 20 mg/m^2 on day 1, and cohort-defined doses of oral decitabine plus cedazuridine on days 2-5. In Cycles 2 and beyond, the oral decitabine and cedazuridine were given on days 1-5. The dose of cedazuridine was escalated first and decitabine was escalated once CDA inhibition by cedazuridine approached the maximum effect. Only one drug was escalated per cohort. Fixed doses were given without adjustment for bodyweight or body surface area. Days −3, 1, 2, and 5 for decitabine included a full-day pharmacokinetic analysis. The starting dose was 20 mg for oral decitabine and 40 mg for cedazuridine (a human equivalent dose with approximately 100 times greater safety margin than the no-observed adverse effect level in cynomolgus monkeys). […] Dose-limiting toxicity was defined as a grade 4 hematologic toxicity or grade 3 lasting more than 14 days and unrelated to the underlying disease. […] Dose escalation for patients who previously received a lower dose was allowed at the discretion of the investigator if the patient had tolerated the originally assigned doses.
The pharmacokinetic profile of decitabine was characterized through analysis of plasma treated with EDTA (edetic acid) by validated liquid chromatography-tandem mass spectrometry, with tetrahydrouridine (Santa Cruz Biotechnology, Dallas, TX) for stabilization and with a linear assay range of 0.5-100 ng/mL for decitabine. Serial plasma samples (from before dose administration until 24 h after administration) were collected on days −3, 1, 2, and 5 (also immediately before dose administration on days 3 and 4) during the first cycle. Specifically, pharmacokinetic samples were obtained before dose administration and 0.25 h, 0.5 h, 1.0 h (for IV only 1.083 h), 1.5 h, 2 h, 3 h, 4 h, 6 h, 8 h, and 24 h after the dose.

The nature of data set [2]: Phase 3 randomized cross over study: 5-day decitabine AUC equivalence, oral ASTX727 vs IV decitabine. It counts as in vivo. The note with it: human, plasma, 20 mg/m2; Phase 3 primary analysis, paired population N=123; IV decitabine 20 mg/m^2; read-out: Decitabine 5-day AUC0-24, IV DEC Geo. LSM. An excerpt: The Primary Endpoint PK Analysis Set is used to calculate decitabine 5-day cumulative AUC0-t exposures after administration of the solid dosage form. The following assumptions are used: • 1) Steady state is reached on Day 2 of dosing with the solid dosage form; • 2) Based on steady state achievement on Day 2, decitabine AUC0-t from Day 2 and Day 5 is representative of daily AUC0-t on Days 2 through Day 5 in a putative 5-day dosing with the solid dosage form.
Therefore, to calculate total 5-day oral decitabine AUC0-t exposures using PK data from 3 days sequential PK sampling, Day 1 AUC0-t (first solid dosage form dose) is added to (Day 2 AUC0-t+Day 5 AUC0-t)×2. If AUC0-t on Day 2 is not available, it is replaced by AUC0-t on Day 5; the converse is also true.
If AUC0-t on Day 1 is not available, it is replaced by AUC0-t on Day 5; the converse is also true. Note that t=24 hrs, so AUC0-t is AUC0-24.
Phase 3 was a randomized cross over design where MDS and CMML patients eligible to receive decitabine were randomized to Sequence A where they received ASTX727 in Cycle 1 then IV decitabine in Cycle 2, or Sequence B with the reverse order. All patients received ASTX727 from Cycle 3 onwards to assess long term efficacy and safety. 118 evaluable patients were needed to show AUC equivalence between oral and IV administrations. […]

Data set [3] can be described thus: ASTX727 Phase 2 randomized cross over dose confirmation: plasma decitabine 5-day AUC, oral vs IV. In kind it is in vivo. The note with it: human, read-out: Decitabine 5-day AUC0-t, IV Geo. LSM.
The subject of data set [4] is MDS and CMML patients. Kind of data set: Phase 2 safety: related adverse events Grade ≥3 in ≥5% of patients. The note with it: Phase 2, Cycle 1 or 2; IV DEC N = 75, ASTX727 N = 78. In kind it is in vivo, human. On the procedure:
The ASTX727 Phase 2 study was a randomized cross over design of decitabine 20 mg/m^2 IV daily (for 5 days) vs. oral decitabine/cedazuridine once daily (for 5 days) in Cycle 1 with patients crossing over to the other drug in Cycle 2 (See FIG. 3). From Cycle 3 onward, all patients continued on oral decitabine/cedazuridine once daily (for 5 days), each cycle every 28 days, until progression.
Changes in DNA methylation after treatment were expressed as relative change (%), calculated as: 100×([methylation on a given post-treatment day]−[baseline methylation]. Adverse event assessments through physical examinations and laboratory monitoring (haematology, metabolic profile, and liver enzymes) were done before treatment on day 1 of each cycle (weekly for haematology in the first two cycles). While on treatment, patients were assessed for adverse events and clinical response, including haematology, metabolic profile, liver enzymes, directed physical examinations, vital signs, transfusion records, and dosing records. Once off treatment, patients were followed up for survival and transformation to acute myeloid leukemia. Dose reduction or delays were permitted at the investigators' discretion to allow for recovery from drug-related myelosuppression.

Marks after values point to notes of the source that are not given here.

For the compound `Nc1ncn([C@H]2C[C@H](O)[C@@H](CO)O2)c(=O)n1` [IV DEC, 5-aza-2′-deoxycytidine], the “5-days Total AUC0-t, IV (N = 41), geometric mean” value in data set [1] (IV decitabine 20 mg/m^2, total IV population of all cohorts (N = 41)) is 821^d h · ng/ml. The AUC(0-t) in data set [1] (iv, 20 mg/m2, Cohort 1, N=5 (extreme outlier excluded), IV decitabine 20 mg/m^2, day 1, read-out: AUC0-t by day, IV D1, Geometric Mean (gCV %)) amounted to 138 ng·h/mL; in data set [1] (iv, 20 mg/m2, Cohort 2, N=6, IV decitabine 20 mg/m^2, day 1, read-out: AUC0-t by day, IV D1, Geometric Mean (gCV %)), 170 ng·h/mL; in data set [1] (iv, 20 mg/m2, Cohort 3, N=6, IV decitabine 20 mg/m^2, day 1, read-out: AUC0-t by day, IV D1, Geometric Mean (gCV %)), 192 ng·h/mL; in data set [1] (iv, 20 mg/m2, Cohort 4, N=6, IV decitabine 20 mg/m^2, day 1, read-out: AUC0-t by day, IV D1, Geometric Mean (gCV %)), 153 ng·h/mL; in data set [1] (iv, 20 mg/m2, Cohort 5, IV decitabine 20 mg/m^2, day 1, IV data from 18 patients (one extreme outlier excluded), read-out: AUC0-t by day, IV D1, Geometric Mean (gCV %)), 166 ng·h/mL; in data set [1] (iv, 20 mg/m^2, Cohort 1, N=6, IV decitabine 20 mg/m^2 1-h infusion, day 1, read-out: AUC0-t by day, IV D1, Geometric Mean (gCV %)), 159 ng·h/mL. The AUC(0-t) is 7.9 ng·h/mL in data set [1] (po, 20 mg, Cohort 1, N=5 (extreme outlier excluded), oral DEC 20 mg alone, day −3, read-out: AUC0-t by day, D −3 (DEC alone), Geometric Mean (gCV %)); 10.7 ng·h/mL in data set [1] (po, 20 mg, Cohort 1, N=6, oral DEC 20 mg alone, day −3, plasma decitabine, read-out: AUC0-t by day, D −3 (DEC alone), Geometric Mean (gCV %)); 7.49 ng·h/mL in data set [1] (po, 20 mg, Cohort 2, N=6, oral DEC 20 mg alone, day −3, read-out: AUC0-t by day, D −3 (DEC alone), Geometric Mean (gCV %)); 7.9 ng·h/mL in data set [1] (po, 20 mg, Cohort 3, N=6, oral DEC 20 mg alone, day −3, read-out: AUC0-t by day, D −3 (DEC alone), Geometric Mean (gCV %)); 15.3 ng·h/mL in data set [1] (po, 30 mg, Cohort 5, N=19, oral DEC 30 mg alone, day −3, read-out: AUC0-t by day, D −3 (DEC alone), Geometric Mean (gCV %)); 29.8 ng·h/mL in data set [1] (po, 40 mg, Cohort 4, N=6, oral DEC 40 mg alone, day −3, read-out: AUC0-t by day, D −3 (DEC alone), Geometric Mean (gCV %)). Further, the AUC(0-t) turned out to be 865 ng·h/mL in data set [2]; 745 ng·h/mL in data set [3] (20 mg/m^2, Phase 2 FDC tablet stage, N=24, 20 mg/m^2 IV infusion (1 h) of decitabine); 803 ng·h/mL in data set [3] (20 mg/m^2, Phase 2 capsule stage, N=40, 20 mg/m^2 IV infusion (1 h) of decitabine). Further, in data set [4], the “Anemia, related AE Grade ≥3” value is 4 (5.3%) n (%). Besides, the “Any Grade ≥3 Related AEs” value in data set [4] was 24 (32%) n (%). For the same compound, the “Febrile Neutropenia, related AE Grade ≥3” value in data set [4] was 4 (5.3%) n (%). Also, the “Leukopenia, related AE Grade ≥3” value in data set [4] is 6 (8.0%) n (%). In addition, the “Neutropenia, related AE Grade ≥3” value in data set [4] is 16 (21.3%) n (%). In addition, the “Thrombocytopenia, related AE Grade ≥3” value in data set [4] is on record as 11 (14.7%) n (%).
